# Experimental data taken from patent US10028992B2, “Methods of treating muscular dystrophy” (BOARD OF REGENTS OF THE NEVADA SYSTEM OF HIGHER EDUCATION …, priority 2012, dated 2018).
# Values joined by “and” are separate entries in the source; they are usually repeats but may differ in a detail not shown here. Equal entries are not always repeated.
# System: α7 integrin promoter
# Test: muscle cell-based assay: α7βgal+/− myoblasts/myotubes, LacZ reporter, β-galactosidase cleavage of FDG
# Parameters: species or system mouse; Results in α7+/− β-galactosidase assay: scale not given here
# Conditions: Myoblasts
# In short: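 Fluorescein generated from FDG by β-galactosidase reports α7 integrin promoter activity in differentiated myoblasts from α7+/− LacZ knock-in pups. Screening hits then went to dose-response, western blotting and a myostatin counterscreen.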
compound,measurement,setting,value
N=C(NOC(=O)c1cccc(C(F)(F)F)c1)c1cnccn1 [drawing 577],Results in α7+/− β-galactosidase assay,0.5 uM,−0.05513
same,Results in α7+/− β-galactosidase assay,1 uM,0.02871
same,Results in α7+/− β-galactosidase assay,5 uM,−0.00636
same,Results in α7+/− β-galactosidase assay,10 uM,−0.02595
same,Results in α7+/− β-galactosidase assay,20 uM,0.07472
same,Results in α7+/− β-galactosidase assay,40 uM,0.1346
CCOc1ccc2nc(Cl)sc2c1 [drawing 578],Results in α7+/− β-galactosidase assay,0.5 uM,−0.06751
same,Results in α7+/− β-galactosidase assay,1 uM,0.05388
same,Results in α7+/− β-galactosidase assay,5 uM,0.04367
same,Results in α7+/− β-galactosidase assay,10 uM,−0.03134
same,Results in α7+/− β-galactosidase assay,20 uM,0.1725
same,Results in α7+/− β-galactosidase assay,40 uM,0.1336
COc1ccc(CNC(=O)C2CCCN(S(=O)(=O)c3c(C)noc3/C=C/N(C)C)C2)cc1 (stereo not shown) [drawing 579],Results in α7+/− β-galactosidase assay,0.5 uM,−0.00404
same,Results in α7+/− β-galactosidase assay,1 uM,0.03462
same,Results in α7+/− β-galactosidase assay,5 uM,−0.04768
same,Results in α7+/− β-galactosidase assay,10 uM,−0.2043
same,Results in α7+/− β-galactosidase assay,20 uM,−0.2235
same,Results in α7+/− β-galactosidase assay,40 uM,−0.5821
CC(O)CNc1nc2c(c(=O)n(Cc3ccc(Br)cc3)c(=O)n2C)n1C (stereo not shown) [drawing 580],Results in α7+/− β-galactosidase assay,0.5 uM,0.04963
same,Results in α7+/− β-galactosidase assay,1 uM,0.02595
same,Results in α7+/− β-galactosidase assay,5 uM,−0.05885
same,Results in α7+/− β-galactosidase assay,10 uM,−0.1174
same,Results in α7+/− β-galactosidase assay,20 uM,−0.1471
same,Results in α7+/− β-galactosidase assay,40 uM,−0.218
COc1ccc(Cl)cc1NC(=O)c1cc(-c2cc(C)ccc2O)[nH]n1 [drawing 581],Results in α7+/− β-galactosidase assay,0.5 uM,0.01879
same,Results in α7+/− β-galactosidase assay,1 uM,0.1148
same,Results in α7+/− β-galactosidase assay,5 uM,−0.07708
same,Results in α7+/− β-galactosidase assay,10 uM,−0.1804
same,Results in α7+/− β-galactosidase assay,20 uM,−0.08756
same,Results in α7+/− β-galactosidase assay,40 uM,−0.06105
CCC(C)C(CC)NC(=O)CSc1nnc(COc2ccc(Cl)cc2)o1 (stereo not shown) [drawing 582],Results in α7+/− β-galactosidase assay,0.5 uM,0.3279
same,Results in α7+/− β-galactosidase assay,1 uM,0.05348
same,Results in α7+/− β-galactosidase assay,5 uM,0.1357
same,Results in α7+/− β-galactosidase assay,10 uM,−0.1014
same,Results in α7+/− β-galactosidase assay,20 uM,−0.1787
same,Results in α7+/− β-galactosidase assay,40 uM,−0.4133
N#Cc1ccc(Sc2nc3ccccc3[nH]2)cc1C#N [drawing 584],Results in α7+/− β-galactosidase assay,0.5 uM,0.3095
same,Results in α7+/− β-galactosidase assay,1 uM,0.07925
same,Results in α7+/− β-galactosidase assay,5 uM,0.2487
same,Results in α7+/− β-galactosidase assay,10 uM,0.1199
same,Results in α7+/− β-galactosidase assay,20 uM,0.003655
same,Results in α7+/− β-galactosidase assay,40 uM,−0.1111
COc1cc(/C=C/CN2CCN(Cc3ccc(C)o3)C(CCO)C2)ccc1O (stereo not shown) [drawing 585],Results in α7+/− β-galactosidase assay,5 uM,0.1427 and 0.1728
COc1ccccc1C(=O)OCc1ccc2sc(C)nc2c1 [drawing 586],Results in α7+/− β-galactosidase assay,0.5 uM,0.191
same,Results in α7+/− β-galactosidase assay,1 uM,−0.07182
same,Results in α7+/− β-galactosidase assay,5 uM,0.1329
same,Results in α7+/− β-galactosidase assay,10 uM,0.00833
same,Results in α7+/− β-galactosidase assay,20 uM,0.1184
same,Results in α7+/− β-galactosidase assay,40 uM,0.01583
NC(=O)COc1ccc(C(=O)/C=C2\C(=O)Nc3ccccc32)cc1 [drawing 587],Results in α7+/− β-galactosidase assay,0.5 uM,0.211
same,Results in α7+/− β-galactosidase assay,1 uM,−0.06344
same,Results in α7+/− β-galactosidase assay,5 uM,−0.1959
same,Results in α7+/− β-galactosidase assay,10 uM,−0.647
same,Results in α7+/− β-galactosidase assay,20 uM,−0.8153
same,Results in α7+/− β-galactosidase assay,40 uM,−0.9741
CC1(C)Cc2ccccc2-c2nc3n(c(=O)c21)CCS3 [drawing 588],Results in α7+/− β-galactosidase assay,0.5 uM,0.2141
same,Results in α7+/− β-galactosidase assay,1 uM,0.0159
same,Results in α7+/− β-galactosidase assay,5 uM,0.02034
same,Results in α7+/− β-galactosidase assay,10 uM,0.02377
same,Results in α7+/− β-galactosidase assay,20 uM,−0.2051
same,Results in α7+/− β-galactosidase assay,40 uM,−0.4207
CN(/C(=N/S(=O)(=O)c1cccs1)c1ccccc1)c1ccccc1 [drawing 589],Results in α7+/− β-galactosidase assay,0.5 uM,0.2361
same,Results in α7+/− β-galactosidase assay,1 uM,−0.03677
same,Results in α7+/− β-galactosidase assay,5 uM,−0.05696
same,Results in α7+/− β-galactosidase assay,10 uM,−0.01934
same,Results in α7+/− β-galactosidase assay,20 uM,−0.0583
same,Results in α7+/− β-galactosidase assay,40 uM,−0.2263
CSc1ccc(S(=O)(=O)NCc2ccccc2)cc1 [drawing 590],Results in α7+/− β-galactosidase assay,0.5 uM,−0.1174
same,Results in α7+/− β-galactosidase assay,1 uM,−0.07696
same,Results in α7+/− β-galactosidase assay,5 uM,0.06657
same,Results in α7+/− β-galactosidase assay,10 uM,0.6252
same,Results in α7+/− β-galactosidase assay,20 uM,0.01406
same,Results in α7+/− β-galactosidase assay,40 uM,−0.1992
O=C1Nc2ccccc2/C1=C/c1ccccc1F [drawing 591],Results in α7+/− β-galactosidase assay,0.5 uM,−0.0677
same,Results in α7+/− β-galactosidase assay,1 uM,−0.05193
same,Results in α7+/− β-galactosidase assay,5 uM,0.009111
same,Results in α7+/− β-galactosidase assay,10 uM,0.1004
same,Results in α7+/− β-galactosidase assay,20 uM,−0.4184
same,Results in α7+/− β-galactosidase assay,40 uM,−0.7444
CN1C(=O)/C(=C(/C#N)c2nc3ccccc3[nH]2)c2ccccc21 [drawing 592],Results in α7+/− β-galactosidase assay,0.5 uM,−0.1972
same,Results in α7+/− β-galactosidase assay,1 uM,−0.1961
same,Results in α7+/− β-galactosidase assay,5 uM,−0.2667
same,Results in α7+/− β-galactosidase assay,10 uM,0.04652
same,Results in α7+/− β-galactosidase assay,20 uM,−0.456
same,Results in α7+/− β-galactosidase assay,40 uM,−0.5499
CC1CC(C)(C)N=C(S)N1CC(=O)N(C)Cc1ccccc1 (stereo not shown) [drawing 593],Results in α7+/− β-galactosidase assay,0.5 uM,−0.00967
same,Results in α7+/− β-galactosidase assay,1 uM,0.04937
same,Results in α7+/− β-galactosidase assay,5 uM,0.1163
same,Results in α7+/− β-galactosidase assay,10 uM,0.244
same,Results in α7+/− β-galactosidase assay,20 uM,0.03336
same,Results in α7+/− β-galactosidase assay,40 uM,0.02068
Cc1noc(C)c1COc1ccc(C(=O)NCCc2ccccn2)cc1 [drawing 594],Results in α7+/− β-galactosidase assay,0.5 uM,−0.1523
same,Results in α7+/− β-galactosidase assay,1 uM,−0.1552
same,Results in α7+/− β-galactosidase assay,5 uM,−0.01736
same,Results in α7+/− β-galactosidase assay,10 uM,0.1691
same,Results in α7+/− β-galactosidase assay,20 uM,−0.127
same,Results in α7+/− β-galactosidase assay,40 uM,−0.3226
COCCSc1ccccc1C(=O)Nc1cc(C)cc(C)c1 [drawing 595],Results in α7+/− β-galactosidase assay,0.5 uM,−0.06029
same,Results in α7+/− β-galactosidase assay,1 uM,−0.1236
same,Results in α7+/− β-galactosidase assay,5 uM,0.04359
same,Results in α7+/− β-galactosidase assay,10 uM,0.2482
same,Results in α7+/− β-galactosidase assay,20 uM,−0.09845
same,Results in α7+/− β-galactosidase assay,40 uM,−0.1003
CC(=O)Nc1ccc(NC(=O)c2cc(=O)c3cc(C)cc(C)c3o2)cc1 [drawing 596],Results in α7+/− β-galactosidase assay,0.5 uM,−0.1173
same,Results in α7+/− β-galactosidase assay,1 uM,−0.07551
same,Results in α7+/− β-galactosidase assay,5 uM,−0.4622
same,Results in α7+/− β-galactosidase assay,10 uM,0.1321
same,Results in α7+/− β-galactosidase assay,20 uM,−0.5173
same,Results in α7+/− β-galactosidase assay,40 uM,−0.5206
Cc1cccc(Sc2nc(-c3ccccc3)ccc2C#N)c1 [drawing 598],Results in α7+/− β-galactosidase assay,0.5 uM,−0.2243
same,Results in α7+/− β-galactosidase assay,1 uM,−0.2124
same,Results in α7+/− β-galactosidase assay,5 uM,0.4228
same,Results in α7+/− β-galactosidase assay,10 uM,0.1696
same,Results in α7+/− β-galactosidase assay,20 uM,−0.08803
same,Results in α7+/− β-galactosidase assay,40 uM,−0.1146
CCC(C)NC(=O)CSc1nnc(COc2ccc(Br)cc2)o1 (stereo not shown) [drawing 599],Results in α7+/− β-galactosidase assay,0.5 uM,0.03703
same,Results in α7+/− β-galactosidase assay,1 uM,−0.07
same,Results in α7+/− β-galactosidase assay,5 uM,−0.1163
same,Results in α7+/− β-galactosidase assay,10 uM,0.4886
same,Results in α7+/− β-galactosidase assay,20 uM,−0.0797
same,Results in α7+/− β-galactosidase assay,40 uM,−0.4672
Cc1ccc(N2C(=O)C3NN=C(C(=O)OCc4ccccc4)C3C2=O)cc1 (stereo not shown) [drawing 600],Results in α7+/− β-galactosidase assay,0.5 uM,0.05483
same,Results in α7+/− β-galactosidase assay,1 uM,−0.02931
same,Results in α7+/− β-galactosidase assay,5 uM,−0.09981
same,Results in α7+/− β-galactosidase assay,10 uM,−0.01836
same,Results in α7+/− β-galactosidase assay,20 uM,0.1359
same,Results in α7+/− β-galactosidase assay,40 uM,−0.03893
